Results taken from ChEMBL document CHEMBL3885881, “DrugMatrix”.

Species: Rattus norvegicus
Assay: DrugMatrix - Regimen: Daily Repeat
Type: toxicity, organism-based, Sprague-Dawley
Design: regimen Daily Repeat, gender Male, age 6-8 weeks
Details: in vivo, po, route oral GAVAGE, vehicle .5 % CMC; for ABSOLUTE BASOPHIL / ABSOLUTE EOSINOPHIL / ABSOLUTE LYMPHOCYTE / ABSOLUTE MONOCYTE / ABSOLUTE SEGMENTED NEUTROPHIL / BASOPHIL / EOSINOPHIL / ERYTHROCYTE COUNT / HEMATOCRIT / HEMOGLOBIN / LEUKOCYTE COUNT / LYMPHOCYTE / MEAN CORPUSCULAR HEMOGLOBIN / MEAN CORPUSCULAR HEMOGLOBIN CONCENTRATION / MEAN CORPUSCULAR VOLUME / MONOCYTE / NEUTROPHIL / NUCLEATED RED BLOOD CELLS / PLATELET COUNT: tissue Blood; for ALANINE AMINOTRANSFERASE / ALBUMIN / ALKALINE PHOSPHATASE / ASPARTATE AMINOTRANSFERASE / BLOOD UREA NITROGEN / CARBON DIOXIDE / CHLORIDE / CHOLESTEROL / CREATINE PHOSPHOKINASE / CREATININE / GLUCOSE / LACTATE DEHYDROGENASE / LIPASE / PHOSPHORUS / POTASSIUM / SODIUM / TOTAL BILIRUBIN / TOTAL PROTEIN / URIC ACID: tissue Plasma
[1] = 100 mg/kg, 120 h, dose level Low, time 5 day
[2] = 2500 mg/kg, 72 h, dose level High, time 3 day
[3] = 2500 mg/kg, 120 h, dose level High, time 5 day

COC1=C(OC)C(=O)C(CCCCCCCCCCO)=C(C)C1=O [IDEBENONE]
ABSOLUTE BASOPHIL [1]: 0 CELLS/uL
ABSOLUTE EOSINOPHIL [1]: 0 CELLS/uL
ABSOLUTE LYMPHOCYTE [1]: 14055 CELLS/uL
ABSOLUTE MONOCYTE [1]: 144.33 CELLS/uL
ABSOLUTE SEGMENTED NEUTROPHIL [1]: 1000.67 CELLS/uL
BASOPHIL [1]: 0%
EOSINOPHIL [1]: 0%
ERYTHROCYTE COUNT [1]: 5.62 x10E6/uL
HEMATOCRIT [1]: 35.7%
HEMOGLOBIN [1]: 14.47 G/DL
LEUKOCYTE COUNT [1]: 15.2 x10E3/uL
LYMPHOCYTE [1]: 92.33%
MEAN CORPUSCULAR HEMOGLOBIN [1]: 25.8 pg
MEAN CORPUSCULAR HEMOGLOBIN CONCENTRATION [1]: 40.57 G/DL
MEAN CORPUSCULAR VOLUME [1]: 63.63 fL
MONOCYTE [1]: 1%
NEUTROPHIL [1]: 6.67%
NUCLEATED RED BLOOD CELLS [1]: 0.33 /100WBC
PLATELET COUNT [1]: 1018.67 x10E3/uL
ALANINE AMINOTRANSFERASE [1]: 63.67 u/L
ALBUMIN [1]: 4.47 G/DL
ALKALINE PHOSPHATASE [1]: 410 u/L
ASPARTATE AMINOTRANSFERASE [1]: 93 u/L
BLOOD UREA NITROGEN [1]: 16 mg/dL
CARBON DIOXIDE [1]: 32.33 mmol/L
CHLORIDE [1]: 102.67 MEQ/L
CHOLESTEROL [1]: 71.67 mg/dL
CREATINE PHOSPHOKINASE [1]: 369.33 u/L
CREATININE [1]: 0.13 mg/dL
GLUCOSE [1]: 152.33 mg/dL
LACTATE DEHYDROGENASE [1]: 136 u/L
LIPASE [1]: 10.33 u/L
PHOSPHORUS [1]: 11.63 mg/dL
POTASSIUM [1]: 6.29 MEQ/L
SODIUM [1]: 145.4 MEQ/L
TOTAL BILIRUBIN [1]: 0.13 mg/dL
TOTAL PROTEIN [1]: 6.13 G/DL
URIC ACID [1]: 1.03 mg/dL
ABSOLUTE BASOPHIL [2]: 0 CELLS/uL
ABSOLUTE EOSINOPHIL [2]: 0 CELLS/uL
ABSOLUTE LYMPHOCYTE [2]: 12762.67 CELLS/uL
ABSOLUTE MONOCYTE [2]: 85.33 CELLS/uL
ABSOLUTE SEGMENTED NEUTROPHIL [2]: 1385.33 CELLS/uL
BASOPHIL [2]: 0%
EOSINOPHIL [2]: 0%
ERYTHROCYTE COUNT [2]: 5.73 x10E6/uL
HEMATOCRIT [2]: 36.83%
HEMOGLOBIN [2]: 14 G/DL
LEUKOCYTE COUNT [2]: 14.23 x10E3/uL
LYMPHOCYTE [2]: 89.33%
MEAN CORPUSCULAR HEMOGLOBIN [2]: 24.43 pg
MEAN CORPUSCULAR HEMOGLOBIN CONCENTRATION [2]: 38 G/DL
MEAN CORPUSCULAR VOLUME [2]: 64.3 fL
MONOCYTE [2]: 0.67%
NEUTROPHIL [2]: 10%
NUCLEATED RED BLOOD CELLS [2]: 0.33 /100WBC
PLATELET COUNT [2]: 1207.33 x10E3/uL
ALANINE AMINOTRANSFERASE [2]: 63.67 u/L
ALBUMIN [2]: 4.23 G/DL
ALKALINE PHOSPHATASE [2]: 312.33 u/L
ASPARTATE AMINOTRANSFERASE [2]: 80.67 u/L
BLOOD UREA NITROGEN [2]: 13.67 mg/dL
CARBON DIOXIDE [2]: 32.33 mmol/L
CHLORIDE [2]: 103.67 MEQ/L
CHOLESTEROL [2]: 71.33 mg/dL
CREATINE PHOSPHOKINASE [2]: 242.67 u/L
CREATININE [2]: 0.15 mg/dL
GLUCOSE [2]: 157.67 mg/dL
LACTATE DEHYDROGENASE [2]: 80.67 u/L
LIPASE [2]: 11 u/L
PHOSPHORUS [2]: 10.1 mg/dL
POTASSIUM [2]: 6.3 MEQ/L
SODIUM [2]: 144.83 MEQ/L
TOTAL BILIRUBIN [2]: 0.17 mg/dL
TOTAL PROTEIN [2]: 5.33 G/DL
URIC ACID [2]: 1.27 mg/dL
ABSOLUTE BASOPHIL [3]: 0 CELLS/uL
ABSOLUTE EOSINOPHIL [3]: 79.33 CELLS/uL
ABSOLUTE LYMPHOCYTE [3]: 11851 CELLS/uL
ABSOLUTE MONOCYTE [3]: 40.67 CELLS/uL
ABSOLUTE SEGMENTED NEUTROPHIL [3]: 1262.33 CELLS/uL
BASOPHIL [3]: 0%
EOSINOPHIL [3]: 0.67%
ERYTHROCYTE COUNT [3]: 5.54 x10E6/uL
HEMATOCRIT [3]: 33.87%
HEMOGLOBIN [3]: 13.77 G/DL
LEUKOCYTE COUNT [3]: 13.23 x10E3/uL
LYMPHOCYTE [3]: 89.33%
MEAN CORPUSCULAR HEMOGLOBIN [3]: 24.87 pg
MEAN CORPUSCULAR HEMOGLOBIN CONCENTRATION [3]: 40.67 G/DL
MEAN CORPUSCULAR VOLUME [3]: 61.17 fL
MONOCYTE [3]: 0.33%
NEUTROPHIL [3]: 9.67%
NUCLEATED RED BLOOD CELLS [3]: 0 /100WBC
PLATELET COUNT [3]: 1402 x10E3/uL
ALANINE AMINOTRANSFERASE [3]: 63 u/L
ALBUMIN [3]: 4.47 G/DL
ALKALINE PHOSPHATASE [3]: 280.33 u/L
ASPARTATE AMINOTRANSFERASE [3]: 108 u/L
BLOOD UREA NITROGEN [3]: 18.33 mg/dL
CARBON DIOXIDE [3]: 30 mmol/L
CHLORIDE [3]: 101.33 MEQ/L
CHOLESTEROL [3]: 63.33 mg/dL
CREATINE PHOSPHOKINASE [3]: 512 u/L
CREATININE [3]: 0.19 mg/dL
GLUCOSE [3]: 146.67 mg/dL
LACTATE DEHYDROGENASE [3]: 149.33 u/L
LIPASE [3]: 8.67 u/L
PHOSPHORUS [3]: 9.97 mg/dL
POTASSIUM [3]: 6.03 MEQ/L
SODIUM [3]: 145.03 MEQ/L
TOTAL BILIRUBIN [3]: 0.23 mg/dL
TOTAL PROTEIN [3]: 6.1 G/DL
URIC ACID [3]: 0.9 mg/dL
